Test results reported in patent publication US11180474B2 (BRISTOL-MYERS SQUIBB COMPANY, priority 2016, dated 2021).
pIC50: −log10 of the molar value.

Target: T1, human TLR8 (Homo sapiens, UniProt Q9NR97)
T1 construct: host or cells: HEK-Blue cells
T1 sequence (Q9NR97 27-1041): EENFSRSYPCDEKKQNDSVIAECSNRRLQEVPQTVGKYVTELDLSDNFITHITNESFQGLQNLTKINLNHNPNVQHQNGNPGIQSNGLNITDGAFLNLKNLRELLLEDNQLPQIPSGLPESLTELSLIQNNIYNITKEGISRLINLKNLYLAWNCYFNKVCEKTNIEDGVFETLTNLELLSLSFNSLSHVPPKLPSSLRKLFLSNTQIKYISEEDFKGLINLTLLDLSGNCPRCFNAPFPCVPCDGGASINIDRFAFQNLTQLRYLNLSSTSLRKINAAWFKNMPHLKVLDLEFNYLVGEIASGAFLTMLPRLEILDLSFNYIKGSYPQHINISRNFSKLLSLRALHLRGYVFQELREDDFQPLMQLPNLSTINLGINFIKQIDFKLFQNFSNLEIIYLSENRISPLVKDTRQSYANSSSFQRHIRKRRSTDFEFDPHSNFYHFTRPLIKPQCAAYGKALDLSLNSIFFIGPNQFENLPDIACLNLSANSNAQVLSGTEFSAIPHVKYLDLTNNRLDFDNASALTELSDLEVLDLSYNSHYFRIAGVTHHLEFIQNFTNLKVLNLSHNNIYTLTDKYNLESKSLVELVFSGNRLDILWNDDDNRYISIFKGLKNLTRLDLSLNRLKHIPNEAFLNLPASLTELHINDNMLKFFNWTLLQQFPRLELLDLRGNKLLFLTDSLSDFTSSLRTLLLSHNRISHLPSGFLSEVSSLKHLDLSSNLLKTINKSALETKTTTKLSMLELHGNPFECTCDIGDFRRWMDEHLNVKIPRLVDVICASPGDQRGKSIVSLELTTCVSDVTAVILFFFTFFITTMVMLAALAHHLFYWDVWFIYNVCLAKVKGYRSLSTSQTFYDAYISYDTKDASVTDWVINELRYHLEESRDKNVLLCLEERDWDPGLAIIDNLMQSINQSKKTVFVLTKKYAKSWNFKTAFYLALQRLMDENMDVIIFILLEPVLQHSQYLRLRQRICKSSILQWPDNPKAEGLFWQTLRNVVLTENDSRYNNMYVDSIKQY
Experiment: TLR8 inhibition reporter assay (HEK-Blue cells, SEAP reporter, R848 stimulation)
Format: cell-based
Conditions: HEK-Blue cells overexpressing human TLR8, R848 15.9 μM
Summary of the method: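 HEK-Blue reporter cells (15,000/well TLR7, 20,000 TLR8) exposed to compound over 0.05 nM–50 μM, agonist-stimulated (R848 for TLR8, gardiquimod for TLR7), 22 h at 37 °C, 5% CO2. SEAP read with HEK-Blue Detection; % inhibition relative to agonist-plus-DMSO and known-inhibitor controls.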

pIC50	SMILES
4.95	COc1ccc(-c2[nH]c3ccc(C4CCN(C(=O)CN5CCN(C)CC5)CC4)cc3c2C)cc1OC [Example 409, 1-(4-(2-(3,4-dimethoxyphenyl)-3-methyl-1H-indol-5-yl)piperidin-1-yl)-2-(4-methylpiperazin-1-yl)ethan-1-one]
5.69	COc1ccc(-c2[nH]c3ccc(C4CCN(C(=O)CNCCC(C)O)CC4)cc3c2C)cc1OC (centres unmarked) [Example 406, 1-(4-(2-(3,4-dimethoxyphenyl)-3-methyl-1H-indol-5-yl)piperidin-1-yl)-2-((3-hydroxybutyl)amino)ethan-1-one]
6.84	COc1ccc(-c2[nH]c3ccc(C4CCN(C5CCN(C6CCC(O)CC6)CC5)CC4)cc3c2C)cc1OC (centres unmarked) [Example 84, 4-(4-(2-(3,4-dimethoxyphenyl)-3-methyl-1H-indol-5-yl)-[1,4′-bipiperidin]-1′-yl)cyclohexan-1-ol]
7.68	COc1ccc(-c2[nH]c3ccc(C4CCN(C5CCN(C(C)C)CC5)CC4)cc3c2CC(F)(F)F)cc1OC [Example 412, 2-(3,4-dimethoxyphenyl)-5-(1′-isopropyl-[1,4′-bipiperidin]-4-yl)-3-(2,2,2-trifluoroethyl)-1H-indole]
6.73	COc1ccc(-c2[nH]c3ccc(C4CCN(C5CCN(Cc6cncn6C)CC5)CC4)cc3c2C)cc1OC [Example 59, 2-(3,4-dimethoxyphenyl)-3-methyl-5-(1′-((1-methyl-1H-imidazol-5-yl)methyl)-[1,4′-bipiperidin]-4-yl)-1H-indole]
5.32	COc1ccc(-c2[nH]c3ccc(C4CCN(C(=O)CN(C)CCO)CC4)cc3c2C)cc1OC [Example 408, 1-(4-(2-(3,4-dimethoxyphenyl)-3-methyl-1H-indol-5-yl)piperidin-1-yl)-2-((2-hydroxyethyl)(methyl)amino)ethan-1-one]
6.84	COc1ccc(-c2[nH]c3ccc(C4CCN(C5CCN(Cc6cccn6C)CC5)CC4)cc3c2C)cc1OC [Example 78, 2-(3,4-dimethoxyphenyl)-3-methyl-5-(1′-((1-methyl-1H-pyrrol-2-yl)methyl)-[1,4′-bipiperidin]-4-yl)-1H-indole]
6.51	COc1ccc(-c2[nH]c3ccc(C4CCN(C5CCN(Cc6nccs6)CC5)CC4)cc3c2C)cc1OC [Example 72, 2-((4-(2-(3,4-dimethoxyphenyl)-3-methyl-1H-indol-5-yl)-[1,4′-bipiperidin]-1′-yl)methyl)thiazole]
7.33	COc1ccc(-c2[nH]c3ccc(C4CCN(C(=O)CN5CCCC(C(=O)N(C)C)C5)CC4)cc3c2CC(F)(F)F)cc1OC (centres unmarked) [Example 419, 1-(2-(4-(2-(3,4-dimethoxyphenyl)-3-(2,2,2-trifluoroethyl)-1H-indol-5-yl)piperidin-1-yl)-2-oxoethyl)-N,N-dimethylpiperidine-3-carboxamide]
6.59	COc1ccc(-c2[nH]c3ccc(C4CCN(C5CCN(CC6CCCCC6)CC5)CC4)cc3c2C)cc1OC [Example 58, 5-(1′-(cyclohexylmethyl)-[1,4′-bipiperidin]-4-yl)-2-(3,4-dimethoxyphenyl)-3-methyl-1H-indole]
7.07	CNCC(=O)N1CCC(c2ccc3[nH]c(-c4ccc(OC)c(OC)c4)c(CC(F)(F)F)c3c2)CC1 [Example 414, 1-(4-(2-(3,4-dimethoxyphenyl)-3-(2,2,2-trifluoroethyl)-1H-indol-5-yl)piperidin-1-yl)-2-(methylamino)ethanone]
6.71	COc1ccc(-c2[nH]c3ccc(C4CCN(C5CCCN(CC(C)C)CC5)CC4)cc3c2C)cc1OC (centres unmarked) [Example 95, 2-(3,4-dimethoxyphenyl)-5-(1-(1-isobutylazepan-4-yl)piperidin-4-yl)-3-methyl-1H-indole]
6.66	COc1ccc(-c2[nH]c3ccc(C4CCN(C5CCN(C6CCCC6)CC5)CC4)cc3c2C)cc1OC [Example 62, 5-(1′-cyclopentyl-[1,4′-bipiperidin]-4-yl)-2-(3,4-dimethoxyphenyl)-3-methyl-1H-indole]
6.49	COc1ccc(-c2[nH]c3ccc(C4CCN(C5CCN(CC(C)(C)C)CC5)CC4)cc3c2C)cc1OC [Example 75, 2-(3,4-dimethoxyphenyl)-3-methyl-5-(1′-neopentyl-[1,4′-bipiperidin]-4-yl)-1H-indole]
6.52	COc1ccc(-c2[nH]c3ccc(C4CCN(C5CCCN(C6CCCC6)CC5)CC4)cc3c2C)cc1OC (centres unmarked) [Example 93, 5-(1-(1-cyclopentylazepan-4-yl)piperidin-4-yl)-2-(3,4-dimethoxyphenyl)-3-methyl-1H-indole]
7.44	C#CCCCCC(=O)NCCN1CCC(c2ccc3[nH]c(-c4ccc(OC)c(OC)c4)c(C(C)C)c3c2)CC1 [Example 411, N-(2-(4-(2-(3,4-dimethoxyphenyl)-3-isopropyl-1H-indol-5-yl)piperidin-1-yl)ethyl)hept-6-ynamide]
7.55	CNCCN1CCC(c2ccc3[nH]c(-c4ccc(OC)c(OC)c4)c(CC(F)(F)F)c3c2)CC1 [Example 413, 2-(4-(2-(3,4-dimethoxyphenyl)-3-(2,2,2-trifluoroethyl)-1H-indol-5-yl)piperidin-1-yl)-N-methylethanamine]
7.60	CCN(CC)C(=O)C1CCCN(CC(=O)N2CCC(c3ccc4[nH]c(-c5ccc(OC)c(OC)c5)c(CC(F)(F)F)c4c3)CC2)C1 (centres unmarked) [Example 420, 1-(2-(4-(2-(3,4-dimethoxyphenyl)-3-(2,2,2-trifluoroethyl)-1H-indol-5-yl)piperidin-1-yl)-2-oxoethyl)-N,N-diethylpiperidine-3-carboxamide]
6.55	COc1ccc(-c2[nH]c3ccc(C4CCN(C5CCN(C6CCC(C)CC6)CC5)CC4)cc3c2C)cc1OC (centres unmarked) [Example 80, 2-(3,4-dimethoxyphenyl)-3-methyl-5-(1′-(4-methylcyclohexyl)-[1,4′-bipiperidin]-4-yl)-1H-indole]
6.67	COc1ccc(-c2[nH]c3ccc(C4CCN(C5CCN(CC6CC6)CC5)CC4)cc3c2C)cc1OC [Example 3, 5-(1′-(cyclopropylmethyl)-[1,4′-bipiperidin]-4-yl)-2-(3,4-dimethoxyphenyl)-3-methyl-1H-indole]
6.03	CCN1CCC(N2CCC(c3ccc4[nH]c(-c5ccc(OC)c(OC)c5)c(C)c4c3)CC2)CC1 [Example 44, 2-(3,4-dimethoxyphenyl)-5-(1′-ethyl-[1,4′-bipiperidin]-4-yl)-3-methyl-1H-indole]
6.53	CCCCCN1CCC(N2CCC(c3ccc4[nH]c(-c5ccc(OC)c(OC)c5)c(C)c4c3)CC2)CC1 [Example 55, 2-(3,4-dimethoxyphenyl)-3-methyl-5-(1′-pentyl-[1,4′-bipiperidin]-4-yl)-1H-indole]
≤ 4.30	COc1ccc(-c2[nH]c3ccc(C4CCN(C(=O)CN5CCC(N(C)C)CC5)CC4)cc3c2C)cc1OC [Example 407, 1-(4-(2-(3,4-dimethoxyphenyl)-3-methyl-1H-indol-5-yl)piperidin-1-yl)-2-(4-(dimethylamino)piperidin-1-yl)ethan-1-one]
6.59	COc1ccc(-c2[nH]c3ccc(C4CCN(CC5CCCCN5C)CC4)cc3c2C)cc1OC (centres unmarked) [Example 49, 2-(3,4-dimethoxyphenyl)-3-methyl-5-(1-((1-methylpiperidin-2-yl)methyl)piperidin-4-yl)-1H-indole]
6.21	COc1ccc(-c2[nH]c3ccc(C4CCN(C5CC(C)(C)NC(C)(C)C5)CC4)cc3c2C)cc1OC [Example 48, 2-(3,4-dimethoxyphenyl)-3-methyl-5-(2′,2′,6′,6′-tetramethyl-[1,4′-bipiperidin]-4-yl)-1H-indole]
6.03	COc1ccc(-c2[nH]c3ccc(C4CCN(C(C)CO)CC4)cc3c2C)cc1OC (centres unmarked) [Example 43, 2-(4-(2-(3,4-dimethoxyphenyl)-3-methyl-1H-indol-5-yl)piperidin-1-yl)propan-1-ol]
6.55	COc1ccc(-c2[nH]c3ccc(C4CCN(C5CCCN(CC6CC6)CC5)CC4)cc3c2C)cc1OC (centres unmarked) [Example 94, 5-(1-(1-(cyclopropylmethyl)azepan-4-yl)piperidin-4-yl)-2-(3,4-dimethoxyphenyl)-3-methyl-1H-indole]
6.99	COc1ccc(-c2[nH]c3ccc(C4CCN(C5CCN(CC6CCOC6)CC5)CC4)cc3c2C)cc1OC (centres unmarked) [Example 74]
4.38	COc1ccc(-c2[nH]c3ccc(C4CCN(C5CCN(CC6CCCC6)CC5)CC4)cc3c2C)cc1OC [Example 65, 5-(1′-(cyclopentylmethyl)-[1,4′-bipiperidin]-4-yl)-2-(3,4-dimethoxyphenyl)-3-methyl-1H-indole]
